The text below walks through data of patent US20040086886A1, “Polymorphisms associated with cardiac arrythmia” (priority 2003, published 2004).

One series has as its target Q9E-MiRP1 channels (Homo sapiens, UniProt Q12809+Q9Y6J6, Q9E). The conditions noted are these: Abbott et al. (1999); cited from earlier work.
The next series concerns the target I57T-MiRP1/HERG channels (Homo sapiens, UniProt Q12809). Put plainly: cell-based.
For series [1], the target named is wild type MiRP1/HERG channels (Homo sapiens, UniProt Q12809). Put plainly: cell-based. To be noted: Ki (equilibrium inhibition constant), wild type MiRP1.
wild type MiRP1/HERG channels (Homo sapiens, UniProt Q12809), sequence (Q12809 whole entry): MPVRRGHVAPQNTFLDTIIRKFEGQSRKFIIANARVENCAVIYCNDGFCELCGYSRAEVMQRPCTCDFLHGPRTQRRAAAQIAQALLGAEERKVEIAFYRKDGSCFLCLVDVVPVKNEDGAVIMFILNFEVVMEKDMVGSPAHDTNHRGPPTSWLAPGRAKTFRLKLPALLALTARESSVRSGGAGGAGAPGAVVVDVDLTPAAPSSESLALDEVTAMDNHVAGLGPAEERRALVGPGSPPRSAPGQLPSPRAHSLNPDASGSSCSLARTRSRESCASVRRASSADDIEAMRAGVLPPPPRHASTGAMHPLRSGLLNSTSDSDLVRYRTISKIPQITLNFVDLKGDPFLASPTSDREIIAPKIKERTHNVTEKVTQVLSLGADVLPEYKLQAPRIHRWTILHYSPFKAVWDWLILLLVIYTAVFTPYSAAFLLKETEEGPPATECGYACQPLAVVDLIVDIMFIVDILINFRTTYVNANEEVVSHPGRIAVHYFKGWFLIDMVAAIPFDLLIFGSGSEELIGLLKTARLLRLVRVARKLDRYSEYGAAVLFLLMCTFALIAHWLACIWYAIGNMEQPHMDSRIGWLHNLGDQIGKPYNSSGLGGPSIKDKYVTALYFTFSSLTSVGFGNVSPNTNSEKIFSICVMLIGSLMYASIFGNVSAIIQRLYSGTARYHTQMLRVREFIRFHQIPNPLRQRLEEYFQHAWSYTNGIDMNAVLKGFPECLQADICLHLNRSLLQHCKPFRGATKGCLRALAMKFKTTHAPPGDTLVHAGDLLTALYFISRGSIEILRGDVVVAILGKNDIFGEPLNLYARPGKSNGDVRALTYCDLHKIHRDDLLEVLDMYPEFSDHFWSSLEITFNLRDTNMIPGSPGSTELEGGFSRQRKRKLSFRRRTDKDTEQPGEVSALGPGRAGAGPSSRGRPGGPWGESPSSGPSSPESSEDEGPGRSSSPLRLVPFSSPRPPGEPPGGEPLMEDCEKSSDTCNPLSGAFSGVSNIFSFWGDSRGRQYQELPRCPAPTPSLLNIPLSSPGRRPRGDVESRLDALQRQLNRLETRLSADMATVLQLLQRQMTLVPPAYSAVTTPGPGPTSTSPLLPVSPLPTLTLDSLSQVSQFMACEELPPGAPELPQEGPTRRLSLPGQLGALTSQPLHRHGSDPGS
wild type MiRP1/HERG channels (Homo sapiens, UniProt Q12809), sequence (Q9Y6J6 whole entry, further chain): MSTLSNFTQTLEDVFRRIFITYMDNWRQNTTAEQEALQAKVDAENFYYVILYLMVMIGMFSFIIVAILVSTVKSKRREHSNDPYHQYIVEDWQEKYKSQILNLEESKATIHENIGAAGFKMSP
The target in series [2] is wild type MiRP1/HERG channels (Homo sapiens, UniProt Q12809+Q9Y6J6). Put plainly: cell-based.
wild type MiRP1/HERG channels (Homo sapiens, UniProt Q12809+Q9Y6J6), sequence (Q12809 whole entry): as the sequence (Q12809 whole entry) above
wild type MiRP1/HERG channels (Homo sapiens, UniProt Q12809+Q9Y6J6), sequence (Q9Y6J6 whole entry): as the sequence (Q9Y6J6 whole entry, further chain) above

Q9E-MiRP1 channels, sequence (Q9Y6J6 whole entry Q9E): as the sequence (Q9Y6J6 whole entry, further chain) above, with Q9E counted along it
Q9E-MiRP1 channels, sequence (Q12809 whole entry): as the sequence (Q12809 whole entry) above
I57T-MiRP1/HERG channels, sequence (Q12809 whole entry): as above
I57T-MiRP1/HERG channels, sequence (Q9Y6J6 whole entry I57T, further chain): as the sequence (Q9Y6J6 whole entry, further chain) above, with I57T counted along it

In the case of `CC[C@H]1OC(=O)[C@H](C)[C@@H](O[C@H]2C[C@@](C)(OC)[C@@H](O)[C@H](C)O2)[C@H](C)[C@@H](O[C@@H]2O[C@H](C)C[C@H](N(C)C)[C@H]2O)[C@](C)(OC)C[C@@H](C)C(=O)[C@H](C)[C@@H](O)[C@]1(C)O` [clarithromycin], the “Sensitivity of Q9E-MiRP1 channels to drug inhibition relative to wild type” value on Q9E-MiRP1 channels is “three-fold more sensitive”.

For orientation: Ki means a dissociation constant, usually derived from enzyme kinetics or from competition with a known ligand. A lower Ki goes with tighter binding. In the case of `O=c1[nH]c2ccccc2n1CCCN1CCN(C(c2ccccc2)c2ccccc2)CC1` [oxatomide], the Ki on I57T-MiRP1/HERG channels is 1880 nM; in series [1] it was 422 nM. Also, the “Level for half-maximal inhibition relative to plasma (therapeutic) levels in patients” value in series [2] is “close to their therapeutic concentrations”.
